Five molecules from patent US7763658B2, “Treatment for cancers” (Synta Pharmaceuticals Corp., priority 2003, dated 2010) can be followed below.

“Also recorded” adds a separate entry of the source.

Series [1] has as its system MDR cell lines (MES-SA/DX5, HL-60/TX1000, Bowes/OV2). Kind of series: Tumor cell growth inhibition, summary over MDR cell lines. As to conditions: for IC50: Homo sapiens, read-out: IC50 against the MDR cell lines. Type of series: cell-based, human. The procedure:
(§1) The in vitro activity of the compounds was assessed in a selected set of human cancer cell lines. Three pairs of tumor cell lines (non-resistant/resistant) were used to identify novel potent antitumor compounds which are capable of overcoming multi-drug resistance.
(§2) HL-60, a model of myeloid leukemia, was obtained from ATCC (ATCC CCL-240); and HL60/TX1000 was isolated in vitro by subculturing HL-60 in progressively higher concentration of paclitaxel. HL-60/TX1000 cells over-express mdr-1 mRNA and p-glycoprotein (PCP), as determined by western blot and immunofluorescence labeling with antiPGP antibodies. The cells are cross-resistant to paclitaxel, Vincristine, Adriamycin, Etoposide and Doxorubicin.
(§3) MES-SA, a model of uterine sarcoma, is sensitive to a number of chemotherapeutic agents, including Doxorubicin, Dactinomycin, Mitomycin C, paclitaxel and Bleomycin, but resistant to Vinblastine and Cisplatin. MES-SA/DX5 was established in the presence of increasing concentrations of Doxorubicin. […] Both MES-SA and MES-SA/Dx5 were purchased from ATCC (ATCC CRL-1976 and ATCC CRL-1977, respectively).
(§4) Bowes is a melanoma cell line; and Bowes/OV2 is a Vincristine resistant Bowes melanoma cell line.
(§5) All experiments were performed on exponentially growing cell culture. Cell densities were 2.5×10^4 cells/ml in all experiment except special.

The subject of a further series is MES-SA. Kind of series: Tumor cell growth inhibition, MTS assay, MES-SA. Type of series: cell-based. As to conditions: Homo sapiens, 72 hours incubation. The procedure:
(§6) The in vitro activity of the compounds was assessed in a selected set of human cancer cell lines.
as §3, §5
(Tetrazolium assays rely on reduction of a dye to a coloured formazan, in cell work by metabolically active cells.)

For series [2], the system named is normal cancer cell lines (MES-SA, HL-60, Bowes). Kind of series: Tumor cell growth inhibition, summary over normal cancer cell lines. As to conditions: Homo sapiens, read-out: IC50 against normal cancer cell lines. Type of series: cell-based. As for the experimental part:
as §1, §2, §3, §4, §5

The test system of a further series is Bowes. Briefly: Tumor cell growth inhibition, MTS assay, Bowes. In kind it is cell-based. The settings on record: Homo sapiens, 72 hours incubation. The procedure:
as §1, §4, §5

A further series relates to HL-60. Kind of series: Tumor cell growth inhibition, MTS assay, HL-60. Type of series: cell-based. The settings on record: Homo sapiens, 72 hours incubation. The procedure: as §1, §2, §5
Another series deals with CEM (T-cell leukemia). Briefly: cells. Type of series: cell-based. As to conditions: Homo sapiens, 72 h, read-out: In vitro Cytotoxicity IC50, CEM. As for the experimental part:
(§7) All experiments were performed on exponentially growing cell culture.

The test system of another series is 39SK normal fibroblast. Briefly: In vitro cytotoxicity, MTS assay, 39SK. In kind it is cell-based. The settings on record: Human normal fibroblast, 72 hours. The procedure: as §7
For series [3], the system named is multi-drug resistant human uterine sarcoma MES-SA/DX5 tumors. Kind of series: MES-SA/DX5 tumors in nude mice. In kind it is in vivo. The settings on record: 15 mg/kg intravenously, 3 times a week for 3 weeks. The procedure:
A supplemented media was prepared from 50% DMEM/Dulbecco Modified Eagle Medium (High Glucose), 50% RPMI 1640, 10% FBS/Fetal Bovine Serum (Hybridoma Tested; Sterile Filtered), 1% L-Glutamine, 1% Penicillin-Streptomycin, 1% MEM Sodium Pyruvate and 1% MEM Non-Essential Amino Acids. FBS was obtained from Sigma Chemical Co. and other ingredients were obtained from Invitrogen Life Technologies, USA). The supplemental media was warmed to 37° C. and 50 ml of media was added to a 175 cm^2 tissue culture flask.
The cells used in the assay were multi-drug resistant MES-SA/DX-5 Human Uterine Sarcoma cells from the American Type Culture Collection. 1 vial of MES-SA/DX-5 cells from the liquid nitrogen frozen cell stock was removed. The frozen vial of cells was immediately placed into a 37° C. water bath and gently swirled until thawed. The freeze-vial was wiped with 70% ethanol and cells were immediately pipetted into the 175 cm^2 tissue culture flask containing supplemented media. […]
The flask was washed with 10 ml of sterile room temperature phosphate buffered saline (PBS). […] The supernatant was aspirated and the cell pellet was resuspended in 10 ml of supplemented media and the cells were counted. […]
The above procedure for trypsinizing and centrifuging the cells were followed. The supernatant was aspirated and the cell pellet was resuspended in 10 ml of sterile PBS and the cells were counted. […]

Another series concerns MES-SA/DX5. Briefly: Tumor cell growth inhibition, MTS assay, MES-SA/DX5. Type of series: cell-based, human. The settings on record: protocol of Example 15, Table 2. As for the experimental part: as §6, §3, §5

Consider `CC(=O)O[C@H]1C(=O)[C@@]2(C)[C@H]([C@H](OC(=O)c3ccccc3)[C@]3(O)C[C@H](OC(=O)[C@H](O)[C@@H](NC(=O)c4ccccc4)c4ccccc4)C(C)=C1C3(C)C)[C@]1(OC(C)=O)CO[C@@H]1C[C@@H]2O` [Paclitaxel], for which the “IC50 compared with Compound (1), same multi-drug resistant cell lines” value in series [1] was “two to three orders of magnitude larger”. For the same molecule, the IC50 (in general, the concentration at which inhibition is half-maximal) in series [1] is 5000 nM; in the series on MES-SA, 0.005 µM; in series [2] it was 2 to 5 nM; in the series on Bowes, 0.005 µM; with HL-60 it was 0.002 µM; in the series with CEM (T-cell leukemia) it was 10 nM.

As for `CN(NC(=O)CC(=O)NN(C)C(=S)c1ccccc1)C(=S)c1ccccc1` [Compound (1)], the IC50 in the series on 39SK normal fibroblast was greater than 10000 nM.

On to `CCN(NC(=O)C(C)C(=O)NN(CC)C(=S)c1ccccc1)C(=S)c1ccccc1` [Compound (16)], for which the “toxicity such as body weight suppression and behavior changes” value in series [3] is on record as “without any obvious toxicity”. The “tumor growth / tumor size of MES-SA/DX5 compared with vehicle” value in series [3] (FIG. 2) is “significantly reduced; also recorded: significantly inhibits the tumor growth”. In addition, half-maximal inhibition in the series with MES-SA/DX5 (Homo sapiens, MES-SA/Dx5) (IC50) was put at 0.05 µM.

`CC[C@]1(O)C[C@H]2CN(CCc3c([nH]c4ccccc34)[C@@](C(=O)OC)(c3cc4c(cc3OC)N(C=O)[C@H]3[C@@](O)(C(=O)OC)[C@H](OC(C)=O)[C@]5(CC)C=CCN6CC[C@]43[C@@H]65)C2)C1` [Vincristine]: in series [1], the “IC50 compared with Compound (1), same multi-drug resistant cell lines” value is “two to three orders of magnitude larger”. The IC50 in series [1] is 5000 nM; in the series with MES-SA, 0.004 µM; in the series on Bowes, 0.002 µM; in the series with HL-60 it was 0.002 µM; in the series on CEM (T-cell leukemia), 5 nM.

As to `CC(C(=O)NN1Cc2ccccc2C1=S)C(=O)NN1Cc2ccccc2C1=S` [Compound (13)], in the series with MES-SA/DX5, it took 0.05 µM to reach half-maximal inhibition (IC50).
